Test results published in patent publication US5409933A, “Quinoline derivatives and processes for preparing the same” (priority 1993, dated 1995).
Where a name gives a salt, the structure may show the parent alone. Read-outs that look alike come from different tables or passages of the source.

Key:
Test in all cases: In Vitro Anti-Bacterial Activity Test (MIC, agar dilution)
Format in all cases: cell-based
Klebsiella oxytoca 1082E = conditions: Klebsiella oxytoca 1082E; Muller-Hinton agar, 37° C., 18 hours; read-out: MIC
Description: (§1) The above in vitro antibacterial activity test was carried out in accordance with the agar culture medium dilution method (Hoechst 345) by using Muller-Hinton agar medium to determine the minimum inhibitory concentration (MIC).
(§2) The strains having 10^7 C.F.U./ml were inoculated on the culture medium, and the growth of the strains was observed after incubating them at 37° C. for 18 hours, in which ciprofloxacin was used as a control antibacterial agent. In this test, twenty typical strains were used.

Escherichia coli 1507E = conditions: Muller-Hinton agar, 37° C.
Description: as §1, §2

[1] = test system: Staphylococcus aureus SG511; conditions: Staphylococcus aureus SG511; Muller-Hinton agar, 37° C., 18 hours; read-out: MIC
Description: as §1, §2

[2] = test system: Klebsiella aerogenes 1522E; conditions: Klebsiella aerogenes 1522E, Muller-Hinton agar, 37° C., 18 hours
Description: as §1, §2

Escherichia coli DC2 = conditions: Escherichia coli, DC2, 18 h
Description: as §1, §2

[3] = test system: Staphylococcus aureus 285; conditions: Staphylococcus aureus 285, Muller-Hinton agar, 37° C., 18 hours
Description: as §1, §2

Escherichia coli DC0 = conditions: Muller-Hinton agar, 37° C., 18 hours, read-out: MIC
Description: as §1, §2

Salmonella typhimurium = conditions: Salmonella enterica; Salmonella typhimurium; Muller-Hinton agar, 37° C., 18 hours; read-out: MIC
Description: as §1, §2

[4] = test system: Enterobacter cloacae 1321E
Description: as §1, §2

[5] = test system: Streptococcus pyogenes 308A; conditions: Muller-Hinton agar, 37° C., 18 hours, read-out: MIC
Description: as §1, §2

Escherichia coli 078 = test system: Escherichia coli 078
Description: as §1, §2

Enterobacter cloacae P99 = conditions: Enterobacter cloacae, P99, 18 h
Description: as §1, §2

[6] = test system: Pseudomonas aeruginosa 1771M; conditions: Muller-Hinton agar, 37° C.
Description: as §1, §2

[7] = test system: Streptococcus pyogenes 77A
Description: as §1, §2

[8] = test system: Pseudomonas aeruginosa 1771; conditions: Pseudomonas aeruginosa 1771; Muller-Hinton agar, 37° C., 18 hours; read-out: MIC
Description: as §1, §2

[9] = test system: Staphylococcus aureus 503; conditions: Staphylococcus aureus 503; Muller-Hinton agar, 37° C., 18 hours; read-out: MIC
Description: as §1, §2

Escherichia coli TEM = conditions: Muller-Hinton agar, 37° C.
Description: as §1, §2

[10] = test system: Pseudomonas aeruginosa 9027; conditions: Muller-Hinton agar, 37° C., 18 hours, read-out: MIC
Description: as §1, §2

[11] = test system: Streptococcus faecium MD8b; conditions: Enterococcus faecium, Muller-Hinton agar, 37° C., 18 hours, read-out: MIC
Description: as §1, §2

[12] = test system: Pseudomonas aeruginosa 1592E; conditions: Muller-Hinton agar, 37° C., 18 hours, read-out: MIC
Description: as §1, §2

[13] = Klebsiella aerogenes, 1522E, 18 h, read-out: MIC
[14] = Staphylococcus aureus, 285, 18 h, read-out: MIC
[15] = Enterobacter cloacae 1321E, Muller-Hinton agar, 37° C., 18 hours, read-out: MIC
[16] = Pseudomonas aeruginosa, 1771M, 18 h
[17] = Streptococcus pyogenes, 77A, 18 h
[18] = Streptococcus pyogenes 77A, Muller-Hinton agar, 37° C., 18 hours, read-out: MIC
[19] = Escherichia coli 078, Muller-Hinton agar, 37° C., 18 hours, read-out: MIC

| SMILES | MIC (Klebsiella oxytoca 1082E) [µg/mL] | MIC (Escherichia coli 1507E; Escherichia coli, 1507E, 18 h) [µg/mL] | MIC [1] [µg/mL] | MIC [2, 13] [µg/mL] | MIC (Escherichia coli DC2) [µg/mL] | MIC [3, 14] [µg/mL] | MIC (Escherichia coli DC0) [µg/mL] | MIC (Salmonella typhimurium) [µg/mL] | MIC [4, 15] [µg/mL] | MIC [5] [µg/mL] | MIC (Escherichia coli 078; Escherichia coli, 078, 18 h) [µg/mL] | MIC (Enterobacter cloacae P99) [µg/mL] | MIC [6, 16] [µg/mL] | MIC [8] [µg/mL] | MIC [9] [µg/mL] | MIC (Escherichia coli TEM; Escherichia coli, 18 h) [µg/mL] | MIC [10] [µg/mL] | MIC [11] [µg/mL] | MIC [12] [µg/mL] | MIC [7, 18] [µg/mL] | also measured |
| --- | --- | --- | --- | --- | --- | --- | --- | --- | --- | --- | --- | --- | --- | --- | --- | --- | --- | --- | --- | --- | --- |
| CCOC(=O)C(C(=O)OCC)C(=O)c1cn(C2CC2)c2c(OC)c(N3CC[C@H](NC)C3)c(F)cc2c1=O [Example 59, 1-cyclopropyl-6-fluoro-8-methoxy-7-(3-3S-methylaminopyrrolidin-1-yl)-3-(2,2-diethoxycarbonylacetyl)-1,4-dihydro-4-oxoquinoline hydrochloride] | 0.007 | 0.391 | 0.098 | 0.098 | 0.098 | 0.098 | 0.781 | 0.049 | 0.049 | 0.781 | 0.049 | 0.049 | 0.781 | 1.56 | 0.098 | 0.049 | 1.56 | 0.781 | – | – | MIC [7, 17]: 0.781 µg/mL |
| Cc1c(N2CCC(N)C2)c(F)cc2c(=O)c(C(=O)C[N+](=O)[O-])cn(C3CC3)c12 (stereo not shown) [Example 50, 1-cyclopropyl-6-fluoro-8-methyl-7-(3-aminopyrrolidin-1-yl)-3-(2-nitroacetyl)-1,4-dihydro-4-oxoquinoline hydrochloride] | 0.013 | 0.098 | 0.098 | 0.195 | 0.049 | 0.098 | 0.195 | 0.013 | 0.013 | 0.781 | 0.025 | 0.013 | 0.391 | 1.56 | 0.098 | 0.049 | 1.56 | 0.195 | 0.781 | 0.391 | – |
| CCOC(=O)CC(=O)c1cn(C2CC2)c2c(F)c(N3CCC(N)C3)c(F)cc2c1=O (stereo not shown) [Example 21, 1-cyclopropyl-6,8-difluoro-7-(3-aminopyrrolidin-1-yl)-3-(2-ethoxycarbonylacetyl)-1,4-dihydro-4-oxoquinoline hydrochloride] | 0.004 | 0.013 | 0.049 | 0.025 | 0.049 | 0.049 | 0.098 | 0.013 | < 0.002 | 0.781 | – | 0.007 | 0.098 | 0.195 | 0.049 | 0.013 | 0.391 | 0.781 | 0.391 | 0.391 | MIC (Escherichia coli 078; [19]): 0.004 µg/mL |
| CC(=O)C(C(C)=O)C(=O)c1cn(C2CC2)c2c(Cl)c(N3CCC(N)C3)c(F)cc2c1=O (stereo not shown) [Example 48, 1-cyclopropyl-6-fluoro-8-chloro-7-(3-aminopyrrolidin-1-yl)-3-(2,2-diacetoacetyl)-1,4-dihydro-4-oxoquinoline hydrochloride] | 0.195 | 0.195 | 0.195 | 0.195 | 0.098 | 0.195 | 0.391 | 0.391 | 0.098 | 0.781 | 0.049 | 0.098 | 0.781 | 3.12 | 0.195 | 0.049 | 3.12 | 0.195 | 1.56 | 0.391 | – |
| O=C(C[N+](=O)[O-])c1cn(C2CC2)c2c(F)c(N3CCNCC3)c(F)cc2c1=O [Example 6, 1-cyclopropyl-6,8-difluoro-7-(piperazin-1-yl)-3-(2-nitroacetyl)-1,4-dihydro-4-oxoquinoline hydrochloride] | < 0.002 | – | 0.098 | 0.007 | 0.098 | 0.195 | 0.195 | < 0.002 | < 0.002 | 3.12 | – | < 0.002 | 0.049 | 0.195 | 0.391 | < 0.002 | 0.391 | 0.781 | 0.195 | – | MIC (Escherichia coli 1507E; 18 hours, read-out: MIC): < 0.002 µg/mL; MIC (Escherichia coli 078; [19]): < 0.002 µg/mL; MIC [7, 17]: 0.781 µg/mL |
| CCOC(=O)CC(=O)c1cn(C2CC2)c2c(Cl)c(N3CC=C(CNC)C3)c(F)cc2c1=O [Example 29, 1-cyclopropyl-6-fluoro-8-chloro-7-(3-methylaminomethyl-2,5-dihydropyrrol-1-yl)-3-(2-ethoxycarbonylacetyl)-1,4-dihydro-4-oxoquinoline hydrochloride] | 0.049 | 0.049 | 0.013 | 0.013 | 0.098 | 0.049 | 0.195 | 0.391 | – | 0.391 | 0.013 | 0.013 | 0.391 | 1.56 | 0.013 | 0.013 | 1.56 | 0.098 | 0.781 | 0.098 | MIC ([4]; Enterobacter cloacae, 1321E, 18 h): 0.007 µg/mL |
| CS(=O)(=O)CC(=O)c1cn(C2CC2)c2c(Cl)c(N3CCC(N)C3)c(F)cc2c1=O (stereo not shown) [Example 33, 1-cyclopropyl-6-fluoro-8-chloro-7-(3-aminopyrrolidin-1-yl)-3-(2-methanesulfonylacetyl)-1,4-dihydro-4-oxoquinoline hydrochloride] | 0.391 | 0.195 | 1.56 | 0.391 | 0.098 | 1.56 | 0.195 | 0.781 | 0.098 | 3.12 | 0.195 | 0.195 | 0.781 | 1.56 | 0.781 | 0.098 | 1.56 | 6.25 | 1.56 | 3.12 | – |
| Cc1c(F)c(N2CCNC(C)C2)cc2c1c(=O)c(C(=O)C[N+](=O)[O-])cn2C1CC1 (stereo not shown) [Example 51, 1-cyclopropyl-5-methyl-6-fluoro-7-(3-methylpiperazin-1-yl)-3-(2-nitroacetyl)-1,4-dihydro-4-oxoquinoline hydrochloride] | 0.013 | 0.049 | 0.195 | 0.195 | 0.195 | 0.098 | 0.781 | 0.025 | 0.025 | 0.781 | 0.025 | 0.025 | 0.195 | 0.781 | 0.098 | 0.049 | 0.781 | 0.391 | 0.391 | 0.391 | – |
| CCOC(=O)C(C(=O)OCC)C(=O)c1cn(C2CC2)c2c(Cl)c(N3CC4=C(CNC4)C3)c(F)cc2c1=O [Example 36, 1-cyclopropyl-6-fluoro-8-chloro-7-(3,7-diazabicyclo[3.3.0]oct-1,5-en-3-yl)-3-(2,2-diethoxycarbonylacetyl)-1,4-dihydro-4-oxoquinoline hydrochloride] | 0.007 | 0.025 | 0.025 | 0.025 | 0.049 | 0.049 | 0.195 | 0.025 | 0.025 | 0.391 | 0.007 | 0.025 | 0.195 | 0.781 | 0.049 | 0.025 | 1.56 | 0.195 | 0.781 | 0.098 | – |
| O=C(C[N+](=O)[O-])c1cn(C2CC2)c2cc(N3CCNCC3)c(F)cc2c1=O [Example 5, 1-cyclopropyl-6-fluoro-7-(piperazin-1-yl)-3-(2-nitroacetyl)-1,4-dihydro-4-oxoquinoline trifluoroacetate] | – | – | – | – | – | – | – | – | – | – | – | – | – | – | – | – | – | – | – | – | MIC (Escherichia coli 1507E; 18 hours, read-out: MIC): 0.013 µg/mL; MIC ([2]; trifluoroacetate): 0.025 µg/mL; MIC ([3]; trifluoroacetate): 0.195 µg/mL; MIC ([6]; 18 hours, trifluoroacetate): 0.049 µg/mL; MIC (Escherichia coli TEM; 18 hours, trifluoroacetate): 0.007 µg/mL |
